Measured values from patent publication US5993815A, “Methods and compositions for inhibiting the activation of thrombin-activatable fibrinolysis inhibitor (TAFI)” (University of Vermont, priority 1997, dated 1999).

Experiments:
Format in all cases: biochemical
[1] = target: T1, thrombin in complex with thrombomodulin (activation of purified human TAFI) (Homo sapiens, UniProt P00734); experiment: two-stage TAFI activation assay, chromogenic substrate hippuryl arginine; details: FPA-CK 50 nmol/L present during incubation of TAFI with thrombin and thrombomodulin, 10 minutes at 22° C.
T1 construct: Prothrombin was purified as described previously and used to prepare thrombin; made in house
Procedure: In a 25-μL reaction volume, TAFI zymogen (0.8 μmol/L final concentration) is incubated with thrombomodulin (40 nmol/L final concentration), Ca^2+ (5.0 mmol/L final concentration), and thrombin (8.0 nmol/L final concentration) in the presence and absence of the putative peptide for 10 minutes at 22° C. Thrombin is then inhibited by the addition of the Phe-Pro-Arg chloromethyl ketone (FPA-CK 50 nmol/L final concentration). […] A negative control may be used by adding FPA-CK at the initiation of the reaction. In the negative control TAFI is not activated because the thrombin is inhibited from functioning. […] The time course of hippuric acid formation is measured by first correcting the volume in each of the reactions by the addition of a volume of buffer equal to that of the added putative peptide. […] The time course of hippuric acid formation at 22° C. is followed by monitoring absorbance at 254 nm and 0.5 minute intervals using a spectrophotometer such as Beckman DU-65 spectrophotometer (Fullteron, Calif.).
Hydrolysis of the chromogenic substrate, hipurryl arginine, was used to determine whether MoAbTAFI#16 inhibits active TAFI. […] The time course of hippuric acid formation at 22° C. was followed by monitoring absorbance at 254 nm and 0.5 minute intervals using a Beckman DU-65 spectrophotometer (Fullteron, Calif.). […]

[2] = test system: clots formed from TAFI-deficient human plasma (TdP); experiment: turbidometric tPA-induced lysis assay of clots formed from TAFI-deficient plasma (TdP); details: every concentration studied; lysis time approximately 50 minutes
Procedure: (§1) Preparation of plasma for lysis assays. Pooled (3 to 4 donors) fresh frozen human plasma was purchased from Haematologic Technologies Inc. (Burlington, Vt.) and dialyzed against 4 L of 20 mmol/L HEPES, 150 mmol/L NaCl, pH 7.4 (HBS) at 4° C. with 4 changes overnight. The dialysate, termed normal human plasma (NHP), was stored at -70° C. in 2.0-mL aliquots. TAFI-deficient plasma (TdP) was produced by passing an aliquot, maximally 50 mL, of NHP over a 2.0-mL anti-TAFI affinity column (MoAbTAFI#16-Sepharose 4B) equilibrated in HBS. Depletion of TAFI was verified by Western blot analysis of a sample from each individual fraction. Only the flow-through fractions depleted of TAFI with an A280 equal to the NHP loaded onto the column were pooled and subsequently stored in 2.0 mL aliquots at -70° C. Pooled plasma samples were also subjected to Western blotting and TAFI concentrations were quantified by ELISA.
(§2) Lysis assay. […] After adding the plasma to the microtiter wells, the plate was transferred to a THERMOMAX microtiter plate reader (Molecular Devices). Temperature was maintained at 37° C. and the turbidity was monitored at 405 nm and 2.5-minute intervals. […]
(§3) 3. […] The TAFI-dependent profibrinolytic effect of each compound was evaluated by determination of lysis time of clots formed from both NHP and TdP in the presence of various concentrations of each inhibitor. […]

[3] = target: T2, active TAFI (thrombin-activatable fibrinolysis inhibitor, plasma carboxypeptidase B) in clots formed from normal human plasma (Homo sapiens, UniProt Q96IY4); experiment: turbidometric tPA-induced lysis assay of clots formed from normal human plasma (NHP); details: tPA 294 pmol/L, 37° C., TAFI-dependent profibrinolytic effect, read-out: EC50 (shortening of lysis time)
T2 construct: tissue Haematologic Technologies Inc. (Burlington, Vt.); host or cells: pooled (3 to 4 donors) fresh frozen human plasma
T2 sequence (Q96IY4 115-423): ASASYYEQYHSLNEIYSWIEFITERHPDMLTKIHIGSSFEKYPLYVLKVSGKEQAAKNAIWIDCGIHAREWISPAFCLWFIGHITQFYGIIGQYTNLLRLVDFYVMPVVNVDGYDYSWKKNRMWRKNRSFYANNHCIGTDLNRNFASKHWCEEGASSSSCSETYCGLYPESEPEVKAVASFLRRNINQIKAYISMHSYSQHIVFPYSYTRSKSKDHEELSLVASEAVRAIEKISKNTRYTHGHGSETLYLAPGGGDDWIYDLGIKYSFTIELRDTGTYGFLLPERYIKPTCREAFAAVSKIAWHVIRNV
Procedure: as §1, §2, §3

Row | SMILES | active TAFI activity generated [1] | effect on lysis time of clots formed from TdP [2] | EC50 [3] [µM]
1 | N=C(N)NCCC[C@H](NC(=O)[C@@H]1CCCN1C(=O)[C@@H](N)Cc1ccccc1)C(=O)CCl [FPA-CK, Phe-Pro-Arg chloromethyl ketone] | No active TAFI activity was generated |  | 
2 | N=C(N)NCCSC(CC(=O)O)C(=O)O (stereo not drawn) [GEMSA, 2-Guanidinoethylmercaptosuccinic acid] |  | did not affect lysis time | 90
